These results are taken from ChEMBL document CHEMBL4229418, “Design, synthesis and pharmacology of aortic-selective acyl-CoA: Cholesterol O-acyltransferase (ACAT/SOAT) inhibitors” (Bioorg Med Chem, 2018).

Experiment [1] is described as follows: Inhibition of SOAT1 in arterial homogenates isolated from 1% cholesterol fed New Zealand white rabbit assessed as reduction in cholesteryl oleate formation incubated for 5 mins in presence of [14C]-oleoyl-CoA and BSA complex by TLC method. The class given is tissue-based, Oryctolagus cuniculus.
Experiment [2] is filed under the species Oryctolagus cuniculus. The experiment in a line: Selectivity ratio of IC50 for inhibition of SOAT2 in New Zealand white rabbit intestinal microsomes to IC50 for inhibition of SOAT1 in arterial homogenates isolated from 1% cholesterol fed New Zealand white rabbit.
Experiment [3] is described as follows: Inhibition of SOAT2 in New Zealand white rabbit intestinal microsomes assessed as reduction in cholesteryl oleate formation incubated for 5 mins in presence of [14C]-oleoyl-CoA and BSA complex by TLC method. Also noted: species or system Oryctolagus cuniculus, Intestine.
For experiment [4], the target named is T1, Sterol O-acyltransferase 1 (Mus musculus, UniProt Q61263).
T1 sequence (Q61263 whole entry): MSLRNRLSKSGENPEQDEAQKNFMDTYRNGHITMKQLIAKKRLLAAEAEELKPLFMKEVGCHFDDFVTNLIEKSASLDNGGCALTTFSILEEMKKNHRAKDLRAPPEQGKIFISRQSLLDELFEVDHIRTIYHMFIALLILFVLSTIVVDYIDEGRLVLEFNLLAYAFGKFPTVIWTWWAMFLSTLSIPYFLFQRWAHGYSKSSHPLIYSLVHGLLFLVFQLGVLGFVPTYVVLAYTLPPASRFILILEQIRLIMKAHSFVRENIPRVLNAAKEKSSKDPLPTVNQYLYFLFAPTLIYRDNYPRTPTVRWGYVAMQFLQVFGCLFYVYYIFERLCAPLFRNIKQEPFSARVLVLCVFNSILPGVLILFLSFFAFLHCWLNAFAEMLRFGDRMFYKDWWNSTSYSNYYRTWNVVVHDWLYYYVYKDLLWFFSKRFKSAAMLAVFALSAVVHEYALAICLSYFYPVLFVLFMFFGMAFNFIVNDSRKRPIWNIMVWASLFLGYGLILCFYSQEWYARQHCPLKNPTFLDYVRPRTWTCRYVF
The experiment in a line: Inhibition of ACAT1 in mouse J774 cells assessed as reduction in esterified cholesterol accumulation after 18 hrs in presence of 25-hydroxycholesterol. It is filed as cell-based.

pIC50: −log10 of the molar value.

In the case of `CC(C)c1cccc(C(C)C)c1NC(=O)CCCCCCSc1nc2ccccc2s1`, the negative logarithm of the IC50 (pIC50) (usually −log10 of the IC50, conventionally taken in molar units) is 8.15 in experiment [1], 7.55 in experiment [3] and 6.39 in experiment [4]. Besides, in experiment [2], the Ratio IC50 stood at 4.

Regarding `CC(C)c1cccc(C(C)C)c1NC(=O)CSc1nc2ccccc2[nH]1`, the pIC50 in experiment [1] was 5.64; in experiment [3], 5.24; in experiment [4], 6.74. In experiment [2], the Ratio IC50 turned out to be 2.5.

Take `CC(C)c1cccc(C(C)C)c1NC(=O)CSc1nc2ccccc2s1`: the pIC50 in experiment [1] is 7.51; in experiment [3], 7.33; in experiment [4], 6.74. The Ratio IC50 in experiment [2] was determined as 1.5.

As for `CC(C)c1cccc(C(C)C)c1NC(=O)CCCCCSc1nc2c(CO)cccc2o1`, the pIC50 in experiment [1] is 7.35; in experiment [3] it was 6.74; in experiment [4], 4.96. Further, in experiment [2], the Ratio IC50 was found to be 4.

With `CC(C)c1cccc(C(C)C)c1NC(=O)CCCCCCCCCSc1nc2ccccc2[nH]1`, the figures for the pIC50 in experiment [1], in experiment [3] and in experiment [4] were 7.72, 7.54 and 6.34, respectively. Further, the Ratio IC50 in experiment [2] was found to be 1.5.

`CC(C)c1cccc(C(C)C)c1NC(=O)CCCCCCSc1nc2ccccc2[nH]1`: the pIC50 in experiment [1] was 7.62; in experiment [3], 7.47; in experiment [4], 7.32. Also, the Ratio IC50 in experiment [2] came out at 1.4.

In the case of `CC(C)c1cccc(C(C)C)c1NC(=O)CCCCCSc1nc2cc(C(F)(F)F)ccc2o1`, the pIC50 is 7.55 in experiment [1], 6.85 in experiment [3] and 7.00 in experiment [4]. In addition, the Ratio IC50 in experiment [2] came to 5.

For the molecule `CC(C)c1cccc(C(C)C)c1NC(=O)CCCCCCCCCCCCCCSc1nc2ccccc2[nH]1`, the negative-log IC50 (pIC50) was 6.92 in experiment [1], 7.36 in experiment [3] and 5.77 in experiment [4]. Moreover, the Ratio IC50 in experiment [2] came to 0.4.

Regarding `CC(C)c1cccc(C(C)C)c1NC(=O)CCCCCSc1nc2c(N(C)C)cccc2o1`, the pIC50 in experiment [1] is 7.54; in experiment [3], 6.92; in experiment [4] it was 6.30. In addition, the Ratio IC50 in experiment [2] amounted to 4.1.

Regarding `CC(C)c1cccc(C(C)C)c1NC(=O)CCCCCCCCCSc1nc2ccccc2s1`, the pIC50 in experiment [1] is 8.30; in experiment [3] it was 7.96; in experiment [4], 6.24. Also, the Ratio IC50 in experiment [2] was 2.2.

As to `CC(C)c1cccc(C(C)C)c1NC(=O)CCCCCCCSc1nc2ccccc2o1`, the pIC50 in experiment [1] was 8.40; in experiment [3], 7.66; in experiment [4], 7.40. In experiment [2], the Ratio IC50 was determined as 5.5.

With `CC(C)c1cccc(C(C)C)c1NC(=O)CCCCCSc1nc2cc(O)ccc2o1`, the results for the pIC50 in experiment [1], in experiment [3] and in experiment [4] were 7.37, 6.92 and 5.55, respectively. Moreover, the Ratio IC50 in experiment [2] is 2.8.

As for `COC(=O)c1cccc2nc(SCCCCCC(=O)Nc3c(C(C)C)cccc3C(C)C)oc12`, the results for the negative logarithm of the IC50 (pIC50) in experiment [1], in experiment [3] and in experiment [4] were 7.49, 6.48 and 7.00, respectively. The Ratio IC50 in experiment [2] came to 10.3.

For the molecule `CC(C)c1cccc(C(C)C)c1NC(=O)CCCCCCCCSc1nc2ccccc2s1`, the pIC50 was 8.40 in experiment [1], 7.74 in experiment [3] and 7.37 in experiment [4]. Further, the Ratio IC50 in experiment [2] is 4.5.

As to `CC(C)c1cccc(C(C)C)c1NC(=O)CCCCCSc1nc2cc(CO)ccc2o1`, the pIC50 in experiment [1] is 7.19; in experiment [3], 7.13; in experiment [4], 5.96. Further, the Ratio IC50 in experiment [2] is 1.2.
